The subject of this assay is AKR/Lw mice, AKR lymphoma ip, median survival T/C. The experiment in a line: NCI In Vivo Anticancer Drug Screen. Data for tumor model Lymphoma AKR (Transplanted) (intraperitoneal) in AKR/Lw mice. The note with it: endpoint: median survival time, higher = longer survival. As to the method: The antitumor activity of compounds was measured in mice bearing transplantable tumors. Survival or tumor size were measured and the results are expressed as the measurement made in the treated group (T) divided by the measurement made in the vehicle treated control group (C). The tumor model used in this assay is Lymphoma AKR (Transplanted) (intraperitoneal) in AKR/Lw mice

Setting [1] is: dose: 5.0 mg/kg/injection, schedule: Q01DX009 (ip), vehicle: saline.
Setting [2] is: dose: 12.5 mg/kg/injection, schedule: Q04DX003 (ip), vehicle: saline.
Setting [3] is: dose: 25.0 mg/kg/injection, schedule: Q01DX001 (ip), vehicle: saline.
[4] abbreviates: dose: 400.0 mg/kg/injection, schedule: Q01DX001 (ip), vehicle: saline.
Where [5] appears, read: dose: 100.0 mg/kg/injection, schedule: Q01DX001 (ip), vehicle: saline.
[6] abbreviates: dose: 200.0 mg/kg/injection, schedule: Q01DX001 (ip), vehicle: saline.

Where “and” joins values, the source holds several entries; their conditions need not be identical. Equal entries are not always repeated. Inconclusive results and toxic doses are left out.

`O=P1(NCCCl)OCCCN1CCCl` (centres undefined): the T/C under setting [1] is 108 % of control; the T/C (dose: 6.25 mg/kg/injection, schedule: Q04DX003 (ip), vehicle: saline) was 96 % of control; the T/C (dose: 10.0 mg/kg/injection, schedule: Q01DX009 (ip), vehicle: saline) is 110 % of control and 113 % of control; the T/C under setting [2] is 96 % of control; the T/C (dose: 18.7 mg/kg/injection, schedule: Q01DX001 (ip), vehicle: saline) was 95 % of control; the T/C (dose: 18.75 mg/kg/injection, schedule: Q01DX001 (ip), vehicle: saline) was 97 % of control. Besides, the T/C reads like this: under setting [3], 120 % of control; (dose: 37.5 mg/kg/injection, schedule: Q01DX001 (ip), vehicle: saline) 95 % of control and 113 % of control; (dose: 37.5 mg/kg/injection, schedule: Q04DX003 (ip), vehicle: saline) 95 % of control; (dose: 50.0 mg/kg/injection, schedule: Q01DX001 (sc), vehicle: steriod suspending solution) 103 % of control; (dose: 54.0 mg/kg/injection, schedule: Q01DX001 (ip), vehicle: saline with Tween-80) 162 % of control; (dose: 54.0 mg/kg/injection, schedule: Q07DX002 (ip), vehicle: water) 155 % of control. Moreover, the T/C by setting is: (dose: 60.0 mg/kg/injection, schedule: Q01DX009 (ip), vehicle: saline) 115 % of control; (dose: 75.0 mg/kg/injection, schedule: Q07DX003 (ip), vehicle: saline) 168 % of control and 184 % of control and 186 % of control; (dose: 80.0 mg/kg/injection, schedule: Q01DX009 (ip), vehicle: saline) 90 % of control; (dose: 100.0 mg/kg/injection, schedule: Q07DX003 (ip), vehicle: saline) 189 % of control; (dose: 108.0 mg/kg/injection, schedule: Q01DX001 (ip), vehicle: saline with Tween-80) 346 % of control; (dose: 108.0 mg/kg/injection, schedule: Q07DX002 (ip), vehicle: water) 355 % of control. For the same molecule, the T/C runs as follows: (dose: 125.0 mg/kg/injection, schedule: Q01DX001 (ip), vehicle: saline) 113 % of control and 153 % of control and 222 % of control; (dose: 125.0 mg/kg/injection, schedule: Q01DX001 (sc), vehicle: steriod suspending solution) 153 % of control; (dose: 125.0 mg/kg/injection, schedule: Q04DX003 (ip), vehicle: saline) 182 % of control and 236 % of control; (dose: 125.0 mg/kg/injection, schedule: Q07DX003 (ip), vehicle: saline) 157 % of control; (dose: 216.0 mg/kg/injection, schedule: Q01DX001 (ip), vehicle: saline with Tween-80) 375 % of control; (dose: 216.0 mg/kg/injection, schedule: Q07DX002 (ip), vehicle: water) 333 % of control. Further, the T/C reads like this: (dose: 250.0 mg/kg/injection, schedule: Q01DX001 (ip), vehicle: saline) 120 % of control and 222 % of control; (dose: 250.0 mg/kg/injection, schedule: Q01DX001 (sc), vehicle: steriod suspending solution) 120 % of control; (dose: 250.0 mg/kg/injection, schedule: Q04DX003 (ip), vehicle: saline) 221 % of control and 236 % of control; (dose: 300.0 mg/kg/injection, schedule: Q04DX003 (ip), vehicle: saline) 105 % of control; under setting [4], 86 % of control; (dose: 400.0 mg/kg/injection, schedule: Q01DX001 (sc), vehicle: steriod suspending solution) 123 % of control. Also, the T/C (dose: 432.0 mg/kg/injection, schedule: Q01DX001 (ip), vehicle: saline with Tween-80) was 375 % of control and the T/C (dose: 600.0 mg/kg/injection, schedule: Q01DX001 (ip), vehicle: saline) is 111 % of control.

For the molecule `Nc1ccn(C2OC(CO)C(O)C2O)c(=O)n1` (centres undefined), the T/C is 87 % of control (dose: 0.18 mg/kg/injection, schedule: Q01DX009 (ip), vehicle: saline); 86 % of control (dose: 0.25 mg/kg/injection, schedule: Q01DX015 (ip), vehicle: saline); 96 % of control (dose: 0.37 mg/kg/injection, schedule: Q01DX009 (ip), vehicle: saline); 93 % of control (dose: 0.5 mg/kg/injection, schedule: Q01DX015 (ip), vehicle: saline); 100 % of control (dose: 0.75 mg/kg/injection, schedule: Q01DX009 (ip), vehicle: saline); 100 % of control (dose: 1.0 mg/kg/injection, schedule: Q01DX015 (ip), vehicle: saline). The T/C reads like this: (dose: 3.12 mg/kg/injection, schedule: Q04DX003 (ip), vehicle: saline) 94 % of control; under setting [1], 150 % of control; (dose: 5.0 mg/kg/injection, schedule: Q03HX032 (ip), vehicle: saline) 150 % of control; (dose: 10.0 mg/kg/injection, schedule: Q03HX032 (ip), vehicle: saline) 150 % of control; under setting [2], 94 % of control; (dose: 15.0 mg/kg/injection, schedule: Q01DX009 (ip), vehicle: saline with Tween-80) 97 % of control. Moreover, the T/C is, setting by setting: (dose: 15.0 mg/kg/injection, schedule: Q04DX003 (ip), vehicle: saline) 120 % of control; (dose: 18.75 mg/kg/injection, schedule: Q06HX004 (ip), vehicle: saline) 150 % of control; (dose: 18.75 mg/kg/injection, schedule: Q06HX016 (ip), vehicle: saline) 170 % of control; (dose: 18.8 mg/kg/injection, schedule: Q04DX003 (ip), vehicle: saline) 87 % of control; (dose: 19.0 mg/kg/injection, schedule: Q04DX003 (ip), vehicle: saline) 100 % of control; under setting [3], 97 % of control. Also, the T/C (dose: 25.0 mg/kg/injection, schedule: Q04DX003 (ip), vehicle: saline) was 100 % of control; the T/C (dose: 40.0 mg/kg/injection, schedule: Q06HX012 (ip), vehicle: saline) is 96 % of control; the T/C (dose: 50.0 mg/kg/injection, schedule: Q01DX001 (ip), vehicle: saline) is 94 % of control and 100 % of control; the T/C (dose: 50.0 mg/kg/injection, schedule: Q04DX003 (ip), vehicle: saline) is 100 % of control; the T/C under setting [5] is 100 % of control; the T/C (dose: 100.0 mg/kg/injection, schedule: Q01DX009 (ip), vehicle: saline) is 87 % of control and 96 % of control. Moreover, the T/C (dose: 150.0 mg/kg/injection, schedule: Q03HX016 (ip), vehicle: saline) is 59 % of control and the T/C (dose: 400.0 mg/kg/injection, schedule: Q04DX003 (ip), vehicle: saline) is 110 % of control.

As to `COc1cccc2c1CCC1=C2CC2C(=O)C1CCC2(C)O` (centres undefined), the T/C was 88 % of control under setting [5], 97 % of control under setting [6] and 100 % of control under setting [4].

For the molecule `O=C(O)/C=C/C(=O)Nc1cccc(Oc2ccc([N+](=O)[O-])cc2[N+](=O)[O-])c1`, the T/C is, setting by setting: under setting [5], 91 % of control; under setting [6], 103 % of control.

Take `O=C1N[C@@H]([C@H]2CC[C@H](Cl)CN2)C(=O)N[C@H]1[C@H]1CC[C@H](Cl)CN1`: the T/C runs as follows: (dose: 0.5 mg/kg/injection, schedule: Q01DX001 (ip), vehicle: water) 113 % of control; (dose: 1.0 mg/kg/injection, schedule: Q01DX001 (ip), vehicle: water) 111 % of control; (dose: 2.0 mg/kg/injection, schedule: Q01DX001 (ip), vehicle: saline) 102 % of control and 105 % of control; (dose: 2.0 mg/kg/injection, schedule: Q01DX001 (ip), vehicle: water) 114 % of control and 119 % of control; (dose: 2.0 mg/kg/injection, schedule: Q01DX009 (ip), vehicle: water) 178 % of control; (dose: 4.0 mg/kg/injection, schedule: Q01DX001 (ip), vehicle: saline) 102 % of control. The T/C runs as follows: (dose: 4.0 mg/kg/injection, schedule: Q01DX001 (ip), vehicle: water) 117 % of control; (dose: 8.0 mg/kg/injection, schedule: Q01DX001 (ip), vehicle: saline) 122 % of control; (dose: 8.0 mg/kg/injection, schedule: Q01DX001 (ip), vehicle: water) 171 % of control and 200 % of control; (dose: 16.0 mg/kg/injection, schedule: Q01DX001 (ip), vehicle: saline) 108 % of control; (dose: 16.0 mg/kg/injection, schedule: Q01DX001 (ip), vehicle: water) 207 % of control.

The record behind these values is PubChem BioAssay AID190 (DTP/NCI, 2004).
